From patent publication US20220242851A1, “CRYSTAL FORM AND SALT OF QUINAZOLINE COMPOUND AND PREPARATION METHOD THEREOF” (SHENZHEN JINRUI FOUNDATION BIOTECH CO., LTD, priority 2019, published 2022)

What was measured:
NCI-N87 cell = assay: Inhibition of cell proliferation, Cell-Titer-Glo, NCI-N87; assay type: cell-based, human; conditions: conclusion
Text: Purpose of the assay: the inhibitory activity of the assay compounds on cell proliferation was detected. Principle of the assay: the luciferase in a Cell-Titer-Glo reagent produces oxidized luciferin with luciferin, oxygen and ATP as reaction substrates, and releases energy in the form of light. Since the luciferase reaction requires ATP, the total amount of light generated by the reaction is proportional to the total amount of ATP that reflects cell viability. Cell line: NCI-N87 cell line (ATCC-CRL-5822), BT-474 cell line (ATCC-HTB-20), OE21 (ECACC-96062201) Cell culture medium: […] L-[…]×, Gibco#25030-081; penicillin-streptomycin Hyclone# SV30010) Cell Titer-Glo® cell viability assay kit with luminescence (Promega #G7573) 384-well cell culture plate (Greiner # 781090) Compound plate (LABCYTE # LP-0200) CO2 incubator (Thermo#371) Vi-cell cell counter (Beckman Coulter) According to the schematic diagram of the cell seed plate, cells were seeded in a 384- or 96-well plate at a density of 1000 cells per well and 25 μL per well, and 25 μL of PBS was added to the wells near edge of the place where no cells were seeded. (1) The stock solution of the compounds has a concentration of 10 mM, and the compounds were diluted with DMSO to an initial concentration of 4 mM. […] After 10 minutes, the plate was read on PerkinElmer Envision, and the […] reading time was set to 0.2 second.

[1] = tested on: subcutaneous xenograft tumor of human gastric cancer NCI-N87 cells; assay: In vivo pharmacodynamics, NCI-N87 subcutaneous xenograft (Assay Example 3); design: species or system mouse
Description: (§1) Purpose of the assay: in vivo efficacy of the assay compound disclosed herein on subcutaneous xenograft tumor of human gastric cancer NCI-N87 cells in a BALB/c nude mouse model was evaluated.
Animals of the assay: female BALB/c nude mice, 6-8 weeks old, weighted 18-22 grams; supplier: Shanghai Ling Chang Biotechnology Co., Ltd.
Human gastric cancer NCI-N87 cells were cultured in monolayer in vitro. The culture conditions were RPMI-1640 medium plus 10% fetal bovine serum, 100 U/mL penicillin, 100 U/mL streptomycin and 2 mM glutamine, 37° C., 5% CO2. The passaging was performed by the conventional digestion with trypsin-EDTA twice a week. When the cell saturation was 80%-90%, the cells were collected, counted and inoculated.
0.2 mL (10×10^6) of NCI-N87 cells (PBS+Matrigel, 1:1) were inoculated subcutaneously on the right back of each nude mouse. When the average tumor volume reached 158 mm^3, administration to each group was started.
The assay compounds were formulated into 0.04 mg/mL and 0.08 mg/mL clear solution in the solvents of 10% NMP (N-methylpyrrolidone)+10% ethylene glycol stearate+80% water.
The assay index was to investigate whether tumor growth is inhibited, delayed or cured. Tumor diameter was measured twice a week with a vernier caliper. The calculation formula of tumor volume was: V=0.5a×b^2, wherein a and b represent the long and short diameters of tumor, respectively.
The antitumor efficacy of the compounds was evaluated by TGI (%) or tumor proliferation rate T/C (%). TGI (%) reflects tumor growth inhibition rate. […]
Statistical analysis included mean and standard error of mean (SEM) of tumor volume at each time point in each group (See Table 13 for specific data). […] The comparison between groups was analyzed by T-test, and the comparison among three or more groups was analyzed by one-way ANOVA. […]

[2] = tested on: subcutaneous xenograft tumor of human gastric cancer NCI-N87 cells; assay: In vivo pharmacodynamics, NCI-N87 subcutaneous xenograft (Assay Example 4); design: species or system mouse; conditions: 0.5 mg/kg, compared with the vehicle control group
Description: as §1
Animals of the assay: female BALB/c nude mice, 6-8 weeks old, weighted 18-22 grams; supplier: shanghai sippr bk laboratory animals Ltd.
Human gastric cancer NCI-N87 cells were cultured in monolayer in vitro. The culture conditions were RPMI-1640 medium plus 10% fetal bovine serum, 100 U/mL penicillin, 100 μg/mL streptomycin, 37° C., 5% CO2. The passaging was performed by conventional digestion with trypsin-EDTA twice a week. When the cell saturation was 80%-90%, the cells were collected, counted and inoculated.
0.2 mL (10×10^6) of NCI-N87 cells (PBS+Matrigel, 1:1) were inoculated subcutaneously on the right back of each mouse. […]
The assay index was to investigate whether tumor growth is inhibited, delayed or cured. Tumor diameter was measured twice a week with a vernier caliper. […]
The antitumor efficacy of the compounds was evaluated by TGI (%) or tumor proliferation rate T/C (%). […]
Statistical analysis included the mean and standard error of mean (SEM) of tumor volume at each time point in each group (See Table 14 for specific data). […] The comparison between groups was analyzed by T-test, and the comparison among three or more groups was analyzed by one-way ANOVA. […]

C=CC(=O)N1[C@@H]2CC[C@H]1C[C@H](Nc1cc3c(Nc4ccc(Cl)c(Cl)c4F)ncnc3cc1OC)C2 [Compound of formula (I)]
inhibitory activity on the proliferation of NCI-N87 cells (in words) (NCI-N87 cell): significant inhibitory activity | tumor inhibitory effect (in words) ([1]; 0.8 mg/kg, compared with the vehicle control group): significant tumor inhibitory effect | drug efficacy compared with Poziotinib (in words) ([1]; low-dose group (0.4 mg/kg)): comparable to or better than the reference compound Poziotinib | tumor inhibitory effect (in words) [2]: significant tumor inhibitory effect
